Legend:
[1] = molecular target: T1, Beta-3 adrenergic receptor (Homo sapiens, UniProt P13945); assay: Agonist activity at human beta-3 adrenergic receptor expressed in CHO cells assessed as cAMP levels at 100 nM relative to isoproterenol; type: functional, cell-based
Target sequence in this assay (P13945 whole entry, looked up): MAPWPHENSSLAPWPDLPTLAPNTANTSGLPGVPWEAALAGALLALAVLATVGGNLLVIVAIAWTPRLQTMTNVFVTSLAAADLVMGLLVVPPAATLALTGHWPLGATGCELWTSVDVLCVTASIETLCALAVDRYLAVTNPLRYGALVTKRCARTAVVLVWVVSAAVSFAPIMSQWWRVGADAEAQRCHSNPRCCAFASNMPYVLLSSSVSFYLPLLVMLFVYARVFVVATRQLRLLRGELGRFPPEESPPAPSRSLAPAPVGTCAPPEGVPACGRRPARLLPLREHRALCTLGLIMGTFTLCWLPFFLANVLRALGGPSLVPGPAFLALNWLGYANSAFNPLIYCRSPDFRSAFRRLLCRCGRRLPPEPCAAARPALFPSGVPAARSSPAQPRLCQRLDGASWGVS

[2] = molecular target: T1, Beta-3 adrenergic receptor; assay: Agonist activity at human beta-3 adrenergic receptor expressed in CHO cells assessed as cAMP levels relative to isoproterenol; type: functional, cell-based; details: filed as agonist
Target sequence in this assay (P13945 whole entry, looked up): as above

[3] = molecular target: Beta-1 adrenergic receptor (Homo sapiens, UniProt P08588); assay: Agonist activity at human beta-1 adrenergic receptor expressed in CHO cells assessed as cAMP levels; type: functional, cell-based
[4] = molecular target: T1, Beta-3 adrenergic receptor; assay: Agonist activity at human beta3 adrenergic receptor expressed in CHO cells assessed as cAMP levels; type: functional, cell-based
Target sequence in this assay (P13945 whole entry): as the sequence (P13945 whole entry, looked up) above

Rattus norvegicus [5] = organism: Rattus norvegicus; assay: Increase in heart rate in rat at 0.01 mM; type: functional
[6] = molecular target: Beta-2 adrenergic receptor (Homo sapiens, UniProt P07550); assay: Agonist activity at human beta-2 adrenergic receptor expressed in CHO cells assessed as cAMP levels; type: functional, cell-based
[7] = molecular target: Beta-3 adrenergic receptor (Rattus norvegicus, UniProt P26255); assay: Agonist activity at rat beta-3 adrenergic receptor expressed in CHO cells assessed as cAMP levels; type: functional, cell-based
[8] = molecular target: Beta-3 adrenergic receptor (Rattus norvegicus) (UniProt P26255); assay: Agonist activity at rat beta-3 adrenergic receptor expressed in CHO cells assessed as cAMP levels relative to isoproterenol; type: functional, cell-based; details: filed as agonist
[9] = AUC (0-6h) in DIO Long-Evans rat at 10 mg/kg, po; type: ADME, organism-based; parameters: time < 6 hr, dose 10 mg/kg, route oral; details: plasma
Rattus norvegicus [10] = assay: Reduction in respiratory quotient in DIO Long-Evans rat at 10 mg/kg, po after 20 hrs relative to control; type: functional; parameters: scale not given: the % may be the effect or the level left
Rattus norvegicus [11] = assay: Increase in energy expenditure in DIO Long-Evans rat at 10 mg/kg, po after 20 hrs relative to control; type: functional

Chain of Beta-1 adrenergic receptor (P08588 whole entry): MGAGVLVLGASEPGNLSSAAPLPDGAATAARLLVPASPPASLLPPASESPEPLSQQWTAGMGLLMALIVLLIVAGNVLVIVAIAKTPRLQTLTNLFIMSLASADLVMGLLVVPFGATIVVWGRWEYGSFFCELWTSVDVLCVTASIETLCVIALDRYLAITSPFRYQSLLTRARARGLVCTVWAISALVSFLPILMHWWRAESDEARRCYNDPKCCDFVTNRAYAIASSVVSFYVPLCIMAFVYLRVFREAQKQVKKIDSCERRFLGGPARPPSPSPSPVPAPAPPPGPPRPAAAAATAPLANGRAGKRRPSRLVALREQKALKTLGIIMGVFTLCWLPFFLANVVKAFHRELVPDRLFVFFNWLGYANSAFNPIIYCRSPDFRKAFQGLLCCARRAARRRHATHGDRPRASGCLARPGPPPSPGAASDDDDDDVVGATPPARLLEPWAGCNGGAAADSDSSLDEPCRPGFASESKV
Chain of Beta-2 adrenergic receptor (P07550 whole entry): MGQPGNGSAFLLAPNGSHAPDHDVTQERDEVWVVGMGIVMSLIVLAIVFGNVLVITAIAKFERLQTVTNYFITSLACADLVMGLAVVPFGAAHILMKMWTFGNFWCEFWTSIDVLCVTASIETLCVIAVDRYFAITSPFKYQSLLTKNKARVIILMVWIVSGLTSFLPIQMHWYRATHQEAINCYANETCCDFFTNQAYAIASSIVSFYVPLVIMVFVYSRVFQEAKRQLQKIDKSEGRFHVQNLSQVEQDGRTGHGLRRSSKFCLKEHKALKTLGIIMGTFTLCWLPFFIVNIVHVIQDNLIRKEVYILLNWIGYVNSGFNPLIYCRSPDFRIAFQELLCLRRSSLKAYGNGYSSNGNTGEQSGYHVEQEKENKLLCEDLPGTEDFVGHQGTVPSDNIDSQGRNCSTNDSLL
Chain of Beta-3 adrenergic receptor (Rattus norvegicus, UniProt P26255) (P26255 whole entry): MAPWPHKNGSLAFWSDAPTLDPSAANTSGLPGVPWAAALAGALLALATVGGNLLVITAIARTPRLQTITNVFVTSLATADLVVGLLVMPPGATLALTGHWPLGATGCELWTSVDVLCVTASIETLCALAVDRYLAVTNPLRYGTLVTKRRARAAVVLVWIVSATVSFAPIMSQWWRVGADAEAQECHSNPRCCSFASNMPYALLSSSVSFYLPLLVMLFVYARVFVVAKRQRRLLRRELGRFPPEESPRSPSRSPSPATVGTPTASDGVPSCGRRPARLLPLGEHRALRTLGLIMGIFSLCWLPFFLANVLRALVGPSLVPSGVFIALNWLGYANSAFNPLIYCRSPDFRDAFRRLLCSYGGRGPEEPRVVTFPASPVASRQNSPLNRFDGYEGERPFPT
Chain of Beta-3 adrenergic receptor (Rattus norvegicus) (P26255 whole entry): as above

Row | Activity ([1]; filed as agonist) [%] | Emax [2] [%] | EC50 [3] | EC50 [4] | Activity [1] [%] | SMILES | Activity (Rattus norvegicus [5]) [%] | further results
1 |  | 63.7 | > 10 µM | 0.0117 µM (agonist) |  | CC(C)(Cc1ccc(Oc2ccc(C(N)=O)cn2)cc1)NC[C@H](O)COc1cccc2[nH]c(=O)n(CCC3CCCC3)c12 | 9.9 | 
2 |  |  |  |  | 33 | CC(Cc1ccc(Oc2ccc(C(N)=O)cn2)cc1)NC[C@H](O)COc1cccc2c1[nH]c(=O)n2C (stereo not given in full) |  | 
3 |  | 67.9 | > 10 µM | 0.0054 µM (agonist) |  | CC(C)(Cc1ccc(Oc2ccc(C(N)=O)cn2)cc1)NC[C@H](O)COc1cccc2[nH]c(=O)n(CCC3CC3)c12 | 8.9 | EC50 [6]: > 10 µM; EC50 [7]: 0.0068 µM (agonist); Emax [8]: 42.7%
4 |  |  |  |  | 30 | CC(Cc1ccc(Oc2ccc(C(=O)O)cc2)cc1)NC[C@H](O)COc1cccc2c1[nH]c(=O)n2C (stereo not given in full) |  | 
5 |  |  |  |  | 29 | CC(Cc1ccc(Oc2ccc(C#N)cn2)cc1)NC[C@H](O)COc1cccc2c1[nH]c(=O)n2C (stereo not given in full) |  | 
6 |  | 65.1 | > 10 µM | 0.0052 µM (agonist) |  | CCn1c(=O)[nH]c2cccc(OC[C@@H](O)CNC(C)(C)Cc3ccc(Oc4ccc(C(N)=O)cn4)cc3)c21 | 20.8 | EC50 [6]: > 10 µM

Continued, compound first:

Row | SMILES | Activity ([1]; filed as agonist) [%] | Emax [2] [%] | EC50 [3] | EC50 [4] | Activity [1] [%] | Activity (Rattus norvegicus [5]) [%] | further results
7 | CC(Cc1ccc(Oc2ccc(C(N)=O)cn2)cc1)NC[C@H](O)COc1cccc2[nH]c(=O)[nH]c12 (stereo not given in full) | 97 |  |  |  |  |  | 
8 | CC(Cc1ccc(Oc2ccc(C#N)cn2)cc1)NC[C@H](O)COc1cccc2[nH]c(=O)n(C)c12 (stereo not given in full) | 83 |  |  |  |  |  | 
9 | CC(Cc1ccc(Oc2ccc(C(N)=O)cn2)cc1)NC[C@H](O)COc1cccc2c1n(C)c(=O)n2C (stereo not given in full) |  |  |  |  | 25 |  | 
10 | Cn1c(=O)[nH]c2cccc(OC[C@@H](O)CNC(C)(C)Cc3ccc(Oc4ccc(C(N)=O)cn4)cc3)c21 |  | 79.7 | 0.0087 µM (agonist) | 0.0071 µM (agonist) |  | 17.7 | EC50 [6]: > 10 µM; EC50 [7]: 0.0245 µM (agonist); Emax [8]: 59.6%
11 | CC(Cc1ccc(Oc2ccc(C(N)=O)cn2)cc1)NC[C@H](O)COc1cccc2[nH]c(=O)n(C)c12 (stereo not given in full) | 87 |  |  |  |  |  | 
12 | CC(Cc1ccc(Oc2ccc(C(=O)O)cc2)cc1)NC[C@H](O)COc1cccc2[nH]c(=O)[nH]c12 (stereo not given in full) | 99 |  |  |  |  |  | 
13 | CCCn1c(=O)[nH]c2cccc(OC[C@@H](O)CNC(C)(C)Cc3ccc(Oc4ccc(C(N)=O)cn4)cc3)c21 |  | 73.9 | > 10 µM | 0.0052 µM (agonist) |  | 19.9 | EC50 [6]: > 10 µM
14 | CC(Cc1ccc(Oc2ccc(C(=O)O)cc2)cc1)NC[C@H](O)COc1cccc2[nH]c(=O)n(C)c12 (stereo not given in full) | 84 |  |  |  |  |  | 
15 | CC(Cc1ccc(Oc2ccc(C#N)cn2)cc1)NC[C@H](O)COc1cccc2c1n(C)c(=O)n2C (stereo not given in full) |  |  |  |  | 11 |  | 
16 | CC(Cc1ccc(Oc2ccc(C(=O)O)cc2)cc1)NC[C@H](O)COc1cccc2c1n(C)c(=O)n2C (stereo not given in full) |  |  |  |  | 28 |  | 
17 | CC(C)(Cc1ccc(Oc2ccc(C(N)=O)cn2)cc1)NC[C@H](O)COc1cccc2[nH]c(=O)n(CCC3CCC3)c12 |  | 58.2 | > 10 µM | 0.0101 µM (agonist) |  | 6.5 | EC50 [6]: > 10 µM; AUC(0-t) at 6 h [9]: 112 ng·h/mL; Activity (Rattus norvegicus [10]): 29%; EC50 [7]: 0.0287 µM (agonist); Activity (Rattus norvegicus [11]): 18%; Emax [8]: 49.6%
18 | CC(Cc1ccc(Oc2ccc(C#N)cn2)cc1)NC[C@H](O)COc1cccc2[nH]c(=O)[nH]c12 (stereo not given in full) | 88 |  |  |  |  |  | 

Source: ChEMBL document CHEMBL1139684, “Potent benzimidazolone based human beta(3)-adrenergic receptor agonists” (Bioorg Med Chem Lett, 2006)
